Results reported in ChEMBL document CHEMBL1153107, “A highly atom economic, chemo-, regio- and stereoselective synthesis and evaluation of spiro-pyrrolothiazoles as antitubercular agents” (2010).
≈ marks a conversion by molar mass, not a printed value.

Tested on: Mycobacterium tuberculosis
Test: Antitubercular activity against multidrug-resistant Mycobacterium tuberculosis
Assay type: functional

Row | Compound | MIC [µM]
1 | CN1C/C(=C\c2ccc(Cl)cc2Cl)C(=O)[C@]2(C1)[C@H](c1ccc(Cl)cc1Cl)[C@@H]1CSCN1[C@@]21C(=O)Nc2ccc(Cl)cc21 | 2.4 (≈ 1.63 µg/mL)
2 | CN1C/C(=C\c2ccc(Cl)cc2Cl)C(=O)[C@]2(C1)[C@H](c1ccc(Cl)cc1Cl)[C@@H]1CSCN1[C@@]21C(=O)Nc2ccc([N+](=O)[O-])cc21 | 0.6 (≈ 0.414 µg/mL)
3 | CN1C/C(=C\c2ccc(F)cc2)C(=O)[C@]2(C1)[C@H](c1ccc(F)cc1)[C@@H]1CSCN1[C@@]21C(=O)Nc2ccc([N+](=O)[O-])cc21 | 1.4 (≈ 0.824 µg/mL)
4 | CN1C/C(=C\c2ccc(Br)cc2)C(=O)[C@]2(C1)[C@H](c1ccc(Br)cc1)[C@@H]1CSCN1[C@@]21C(=O)Nc2ccc([N+](=O)[O-])cc21 | 2.3 (≈ 1.63 µg/mL)
5 | CN1C/C(=C\c2ccccc2Cl)C(=O)[C@]2(C1)[C@H](c1ccccc1Cl)[C@@H]1CSCN1[C@@]21C(=O)Nc2ccc([N+](=O)[O-])cc21 | 2.6 (≈ 1.62 µg/mL)
6 | CN1C/C(=C\c2ccc(F)cc2)C(=O)[C@]2(C1)[C@H](c1ccc(F)cc1)[C@@H]1CSCN1[C@@]21C(=O)Nc2ccc(Cl)cc21 | 2.8 (≈ 1.62 µg/mL)
7 | CC[C@@H](CO)NCCN[C@@H](CC)CO [ETHAMBUTOL] | 61.2 (≈ 12.5 µg/mL)
8 | NNC(=O)c1ccncc1 [ISONIAZID] | 11.4 (≈ 1.56 µg/mL)
9 | NC(=O)c1cnccn1 [PYRAZINAMIDE] | 406 (≈ 50 µg/mL)
10 | CO[C@H]1/C=C/O[C@@]2(C)Oc3c(C)c(O)c4c(O)c(c(/C=N/N5CCN(C)CC5)c(O)c4c3C2=O)NC(=O)/C(C)=C\C=C\[C@H](C)[C@H](O)[C@@H](C)[C@@H](O)[C@@H](C)[C@H](OC(C)=O)[C@@H]1C [RIFAMPIN] | 3.8 (≈ 3.13 µg/mL)
